Assay results reported in the CheMixHub viscosity set.

Test: xn = mol fraction of the nth substance listed

CCCCCCCCCCCCCC[P+](CCCCCC)(CCCCCC)CCCCCC.c1nnc[n-]1 + CCCCCCn1cc[n+](C)c1.O=S(=O)([N-]S(=O)(=O)C(F)(F)F)C(F)(F)F
viscosity [mPa·s], 100 kPa
Settings	x1 = 0.107	x1 = 0.208	x1 = 0.307	x1 = 0.4	x1 = 0.507	x1 = 0.622	x1 = 0.718	x1 = 0.805	x1 = 0.9
293.15 K	132	220	308	452	677	901	1162	1349	1458
298.15 K	103	165	227	329	485	633	811	932	1013
303.15 K	81	127	171	245	355	456	579	664	720
308.15 K	65	99	132	186	267	337	422	484	524
313.15 K	54	79	104	145	204	253	314	359	389
318.15 K	–	64	83	115	159	194	239	273	296
323.15 K	–	53	67	93	127	152	185	211	229

CCOCC + Cc1ccccc1
viscosity [mPa·s], 101 kPa
Settings	293.15 K	298.15 K	303.15 K	308.15 K
x2 = 0.21	0.3	0.29	0.281	0.272
x2 = 0.45	0.379	0.36	0.345	0.331
x2 = 0.71	0.468	0.445	0.419	0.404

CC(=O)CC(C)C + CC(C)=O
298.15 K, 101 kPa
Settings	viscosity [mPa·s]
x2 = 0.0872	0.5206
x2 = 0.2689	0.474
x2 = 0.3526	0.4524
x2 = 0.359	0.45
x2 = 0.5077	0.4139
x2 = 0.7067	0.366
x2 = 0.7731	0.3515
x2 = 0.8344	0.3373
x2 = 0.835	0.3362
x2 = 0.9323	0.3141

O=C1CCCCC1 + CS(C)=O
303.15 K, 101 kPa
Settings	viscosity [mPa·s]
x2 = 0.099	1.721
x2 = 0.1791	1.669
x2 = 0.2687	1.649
x2 = 0.3683	1.648
x2 = 0.4653	1.657
x2 = 0.5628	1.675
x2 = 0.6679	1.698
x2 = 0.7877	1.725
x2 = 0.8903	1.755

CC(C)CC(C)(C)C + Cc1ccccc1
101 kPa
Settings	viscosity [mPa·s]
298.15 K, x1 = 0.1138	0.519
298.15 K, x1 = 0.2032	0.498
298.15 K, x1 = 0.2796	0.485
298.15 K, x1 = 0.3319	0.477
298.15 K, x1 = 0.4044	0.47
298.15 K, x1 = 0.4365	0.467
298.15 K, x1 = 0.4983	0.464
298.15 K, x1 = 0.618	0.459
298.15 K, x1 = 0.6934	0.458
298.15 K, x1 = 0.7315	0.461
298.15 K, x1 = 0.8036	0.463
298.15 K, x1 = 0.8966	0.467
298.15 K, x1 = 0.9292	0.47
298.15 K, x1 = 0.9743	0.474
308.15 K, x1 = 0.0644	0.4877
308.15 K, x1 = 0.1217	0.4728
308.15 K, x1 = 0.1933	0.4593
308.15 K, x1 = 0.2715	0.4474
308.15 K, x1 = 0.3689	0.4362
308.15 K, x1 = 0.4483	0.4305
308.15 K, x1 = 0.5805	0.4258
308.15 K, x1 = 0.6997	0.425
308.15 K, x1 = 0.8297	0.4265

O=C1CCCCC1 + CCCO
303.15 K, 101 kPa
Settings	viscosity [mPa·s]
x1 = 0.1012	1.452
x1 = 0.2601	1.283
x1 = 0.4199	1.243
x1 = 0.5794	1.3
x1 = 0.7393	1.392
x1 = 0.8997	1.576

CCOCC + C=C(C)C(=O)OC
298.15 K, 101.3 kPa
Settings	viscosity [mPa·s]
x2 = 0.0454	0.249
x2 = 0.1483	0.281
x2 = 0.249	0.314
x2 = 0.3495	0.349
x2 = 0.4486	0.385
x2 = 0.4908	0.4
x2 = 0.5479	0.421
x2 = 0.6504	0.459
x2 = 0.7501	0.496
x2 = 0.8488	0.532
x2 = 0.947	0.567

O=C1CCCCC1 + COCCO
298.15 K, 101 kPa
Settings	viscosity [mPa·s]
x1 = 0.0793	1.432
x1 = 0.1624	1.369
x1 = 0.2494	1.33
x1 = 0.3408	1.325
x1 = 0.4367	1.33
x1 = 0.5377	1.354
x1 = 0.644	1.402
x1 = 0.7562	1.504
x1 = 0.8746	1.665

Cc1cccc[n+]1CCCO.[Cl-] + O
viscosity [mPa·s], 100 kPa
Settings	x1 = 0.0008999	x1 = 0.001798	x1 = 0.003589	x1 = 0.005379	x1 = 0.007153	x1 = 0.00892
293.15 K	1.041	1.068	1.116	1.161	1.203	1.243
298.15 K	0.922	0.945	0.987	1.026	1.063	1.098
303.15 K	0.822	0.841	0.877	0.911	0.943	0.974
308.15 K	0.739	0.756	0.788	0.818	0.846	0.874
313.15 K	0.668	0.682	0.709	0.736	0.761	0.786

CC(=O)CC(C)C + CCOCCO
298.15 K, 101.33 kPa
Settings	viscosity [mPa·s]
x1 = 0.1481	1.043
x1 = 0.2727	0.943
x1 = 0.3972	0.854
x1 = 0.511	0.782
x1 = 0.6235	0.718
x1 = 0.7252	0.664
x1 = 0.824	0.617
x1 = 0.8892	0.588

CCOCC + CO
101 kPa
Settings	viscosity [mPa·s]
298.15 K, x1 = 0.115	0.4734
298.15 K, x1 = 0.1893	0.4296
298.15 K, x1 = 0.2803	0.3846
298.15 K, x1 = 0.3957	0.3378
298.15 K, x1 = 0.5399	0.2953
298.15 K, x1 = 0.7319	0.2553
303.16 K, x1 = 0.04	0.4893
303.16 K, x1 = 0.09	0.4472
303.16 K, x1 = 0.13	0.4312
303.16 K, x1 = 0.2	0.3881
303.16 K, x1 = 0.27	0.3392
303.16 K, x1 = 0.37	0.2921
303.16 K, x1 = 0.51	0.2772
303.16 K, x1 = 0.67	0.2511
303.16 K, x1 = 0.85	0.2328

O=C1CCCCC1 + CCCCCC
viscosity [mPa·s]
Settings	298.15 K	303.15 K	308.15 K
101 kPa, x1 = 0.0863	0.364	–	–
101 kPa, x1 = 0.2109	0.421	–	–
101 kPa, x1 = 0.3038	0.474	–	–
101 kPa, x1 = 0.4007	0.542	–	–
101 kPa, x1 = 0.463	0.598	–	–
101 kPa, x1 = 0.6023	0.773	–	–
101 kPa, x1 = 0.6701	0.833	–	–
101 kPa, x1 = 0.7991	1.185	–	–
101 kPa, x1 = 0.872	1.398	–	–
101.33 kPa, x1 = 0.1011	0.335	0.318	0.305
101.33 kPa, x1 = 0.2012	0.381	0.361	0.343
101.33 kPa, x1 = 0.3052	0.445	0.418	0.396
101.33 kPa, x1 = 0.4029	0.514	0.483	0.458
101.33 kPa, x1 = 0.5011	0.607	0.57	0.537
101.33 kPa, x1 = 0.6043	0.732	0.684	0.641
101.33 kPa, x1 = 0.7032	0.898	0.834	0.779
101.33 kPa, x1 = 0.8003	1.131	1.033	0.961
101.33 kPa, x1 = 0.8989	1.441	1.322	1.22

O=C1CCCCC1 + C1COCCO1
viscosity [mPa·s], 101 kPa
Settings	x1 = 0.099	x1 = 0.2022	x1 = 0.31	x1 = 0.4227	x1 = 0.5406	x1 = 0.6641	x1 = 0.728	x1 = 0.8607	x1 = 0.9295
293.15 K	1.323	1.352	1.396	1.463	1.56	1.694	1.782	2.003	2.148
298.15 K	1.214	1.239	1.281	1.341	1.429	1.544	1.626	1.816	1.941
303.15 K	1.12	1.142	1.184	1.235	1.324	1.417	1.489	1.657	1.769
308.15 K	1.036	1.06	1.094	1.145	1.224	1.315	1.373	1.513	1.618
313.15 K	0.9598	0.9803	1.017	1.063	1.143	1.212	1.263	1.39	1.497

CC(C)CC(=O)CC(C)C + CC(C)O
viscosity [mPa·s], 100 kPa
Settings	x1 = 0.0818	x1 = 0.1619	x1 = 0.2451	x1 = 0.3518	x1 = 0.4413	x1 = 0.5637	x1 = 0.6549	x1 = 0.7367	x1 = 0.8528	x1 = 0.9379
293.15 K	1.93	1.52	1.19	0.92	0.76	0.65	0.63	0.66	0.77	0.87
298.15 K	1.73	1.41	1.14	0.88	0.72	0.62	0.61	0.64	0.74	0.83
303.15 K	1.51	1.26	1.05	0.83	0.7	0.6	0.59	0.62	0.72	0.8
308.15 K	1.32	1.12	0.95	0.77	0.66	0.58	0.57	0.6	0.68	0.76
313.15 K	1.18	1.01	0.87	0.72	0.63	0.56	0.55	0.57	0.64	0.71
318.15 K	1.05	0.92	0.8	0.67	0.6	0.54	0.53	0.55	0.61	0.67
323.15 K	0.93	0.82	0.72	0.63	0.57	0.52	0.51	0.53	0.58	0.63

CC(C)CC(C)(C)C + CCCCCC
298.15 K, 101 kPa
Settings	viscosity [mPa·s]
x1 = 0.05688	0.3093
x1 = 0.1612	0.3278
x1 = 0.2742	0.3441
x1 = 0.3413	0.3538
x1 = 0.4585	0.373
x1 = 0.5556	0.3897
x1 = 0.6116	0.3995
x1 = 0.7348	0.4226
x1 = 0.7874	0.4329
x1 = 0.852	0.4445
x1 = 0.9128	0.4582
x1 = 0.9559	0.4674
x2 = 0.03385	0.484

CC(=O)CC(C)C + CCCCCCC
298.15 K, 101 kPa
Settings	viscosity [mPa·s]
x1 = 0.1142	0.39
x1 = 0.2052	0.397
x1 = 0.3088	0.407
x1 = 0.4417	0.424
x1 = 0.5341	0.438
x1 = 0.6443	0.458
x1 = 0.7444	0.478
x1 = 0.8854	0.511

CCC(C)N (stereo unspecified) + COCCO
308.15 K, 101 kPa
Settings	viscosity [mPa·s]
x2 = 0.1256	0.5105
x2 = 0.2443	0.6223
x2 = 0.3566	0.7355
x2 = 0.463	0.8498
x2 = 0.564	0.9507
x2 = 0.6599	1.015
x2 = 0.7511	1.066
x2 = 0.838	1.121
x2 = 0.9209	1.175

CC(=O)CC(C)C + CCCC(C)O
viscosity [mPa·s], 101.3 kPa
Settings	x1 = 0.1036	x1 = 0.2131	x1 = 0.3003	x1 = 0.3959	x1 = 0.5098	x1 = 0.5963	x1 = 0.6924	x1 = 0.7942	x1 = 0.9001
298.15 K	2.26	1.61	1.32	1.12	0.924	0.821	0.712	0.646	0.589
303.15 K	1.93	1.41	1.16	1.01	0.848	0.76	0.664	0.607	0.557
308.15 K	1.65	1.25	1.05	0.91	0.78	0.705	0.62	0.571	0.527
313.15 K	1.41	1.1	0.965	0.837	0.718	0.658	0.601	0.553	0.502
